# In paper PMC10882974 (Environmental Science & Technology, 2024):
# Entries after “also recorded” stand apart in the source; their conditions may differ. Where a name gives a salt, the structure may show the parent alone.
# Key:
# [1] = test system: Gammarus pulex, Nile tilapia, and Japanese Medaka; conditions: cited from earlier work
# [2] = test system: C. elegans; test: toxicokinetics experiment III: effect of E. coli on uptake; assay type: in vivo, Caenorhabditis elegans; conditions: for BCF FLX (kinetic bioconcentration factor) / kt transformation rate constant of fluoxetine to norfluoxetine: exp III, 10 h
# Procedure: (§1) In between cycles, the samples were kept on ice. […] Samples were stored at −20 °C until further analysis.
# (§2) All parameters and units are summarized in SI A3.
# [3] = as above; assay type: in vivo, Caenorhabditis elegans; conditions: 10 mg/L, k2f elimination rate constant of fluoxetine (k2FLX,sum), exp III, 10 h
# Procedure: as §1, §2
# [4] = stability of fluoxetine in S medium; conditions: 10 mg/L, 20 °C, 0.5-24 h
# Procedure: After 0.5, 1, 2, 5, 10, and 24 h at 20 °C, samples of spiked medium were stored at −80 °C until analysis. […] Therefore, two replicates of the samples were washed three times with M9 buffer, while the other two were just centrifuged once, and the entire supernatant was removed.
# E. coli containing pellets were resuspended in 250 μL of methanol and frozen in liquid nitrogen and then left at room temperature to thaw, followed by 5 min of sonication in a sonication bath. The freeze–thawing and sonication were repeated twice more and after this, samples were centrifuged at 15,000g for 15 min. The supernatant was stored at −20 °C until analysis.
# Separation was performed on a UHPLC system (Shimadzu) with a Kinetex 1.7 μm C18 100 A LC column (150 mm × 2.1 mm, Phenomenex).
# [5] = test system: C. elegans; test: toxicokinetics experiment IV: long-term exposure of L4 and adult worms
# Procedure: (§3) Three replicates of 1500 pooled C. elegans were used for each time point for each concentration. For experiments with E. coli, the OD600 was kept constant at 0.4.
# (§4) C. elegans containing pellets were resuspended in 500 μL of methanol, and 0.6 g of […] ceramic beads (1.4 mm) were added to the vial. The samples were homogenized three times for 20 s using a Minilys homogenizer (Bertin Technologies) at middle speed. In between cycles, the samples were kept on ice. […] The supernatant was transferred to a glass tube, the pellet (including the ceramic beads) was resuspended in 500 μL of methanol, and the homogenization, sonication, and centrifugation cycle was repeated twice more to result in a three-step extraction. The total combined supernatant was concentrated to dryness under a gentle nitrogen stream and redissolved in 500 μL of methanol to a final concentration of the IS of 1 μM. Samples were stored at −20 °C until further analysis.
# (§5) A one-compartment model was selected since chemical concentrations could only be measured for the whole organism. […] All parameters and units are summarized in SI A3.
# (§6) The kinetic bioconcentration factor[33] was calculated with eq 3, and the ke and kt were only included when applicable to the respective experiment [drawing 4] 3
# (§7) Model fitting was performed by adding the ordinary differential equations to the BYOM modeling package version 6.3 (http://www.debtox.info/byom.html) in Matlab R2022b.[34] […] Optimization was performed with the Melder–Mead Simplex Search method, minimizing the minus log-likelihood. […] Model script deviations from the BYOM model can be found in SI A9.
# [6] = as above; conditions: whole organism (worm homogenate), iv, exp IV, with E. coli, 48 h
# Procedure: as §3, §4, §5, §6, §7
# [7] = test system: marine mussels, freshwater mussels, Daphnia magna; conditions: cited from earlier work
# [8] = test system: C. elegans; test: norfluoxetine uptake and coexposure with fluoxetine (SI A5); assay type: in vivo, Caenorhabditis elegans; conditions: fluoxetine 5 and 20 mg/L with norfluoxetine 20 mg/L
# Procedure: Alternatively, there could be a concentration-dependent increase in metabolism over time resulting from enzyme induction. This was modeled with an extra metabolism rate constant ke that was included after 10 h (eq 1a and Figure 4C,D).
# [9] = test system: C. elegans; test: toxicokinetics experiment I: elimination after 1 h exposure; assay type: in vivo, Caenorhabditis elegans; conditions: after 1 h exposure; no E. coli
# Procedure: as §1, §2
# [10] = as above; assay type: in vivo, Caenorhabditis elegans; conditions: whole organism (worm homogenate)
# Procedure: as §1, §2
# [11] = test system: C. elegans; test: toxicokinetics experiment II: short-term uptake of different concentrations; assay type: in vivo, Caenorhabditis elegans; conditions: for BCF FLX (kinetic bioconcentration factor) / k1 uptake rate constant: exp II, no E. coli, 2 h
# Procedure: as §1, §2
# [12] = as above; assay type: in vivo, Caenorhabditis elegans; conditions: k2f elimination rate constant of fluoxetine (k2FLX,sum), exp II, no E. coli, 2 h
# Procedure: as §1, §2
# [13] = test system: cyp35-a2; test: cyp35-a2 gene expression (qRT-PCR); assay type: in vivo, Caenorhabditis elegans
# Procedure: 1500 worms were collected in eppendorf tubes with 300 μL of RLT lysis buffer (Qiagen, Hilden, Germany) and homogenized using a Minilys homogenizer (Bertin Technologies) at middle speed four times for 20 s and kept on ice in between. Total RNA was isolated with the QIAshredder and RNeasy mini kits (Qiagen) according to the manufacturer’s protocol. The QuantiTect reverse transcription kit (Qiagen) was used for cDNA generation. RT-qPCR was performed on a Biorad CFX Opus 384 System using an iQ SYBR Green Supermix (Biorad) for amplification. The gene of interest was cyp35-a2, and cdc-42 was used as a housekeeping gene. Primers were generated by Biolegio (Nijmegen, The Netherlands); further details on the RT-qPCR and primers can be found in SI A7. Three biological replicates were used for each treatment.
# [14] = with E. coli, 10 mg/L, k1, k2FLX, k2NF, kt constrained (eq 1b)
# [15] = with E. coli, 10 mg/L, no constraint
# [16] = exp IV, with E. coli, 0.5 mg/L, 48 h
# [17] = exp IV, with E. coli, 20 mg/L, 48 h
# [18] = combined experiments II, III, IV
structure (smiles),measurement,setting,value
"CNCCC(Oc1ccc(C(F)(F)F)cc1)c1ccccc1 (centres unmarked) [fluoxetine, Fluoxetine hydrochloride]",k2 elimination rate,[1],0.0008 to 0.08 h⁻¹
same,time to reach peak internal fluoxetine concentrations,[2]; Figure 4,2 to 5 h
same,"effect of presence of bacteria on k2FLX,sum",[2]; Figure 5,decreased to around half
same,BCF FLX (kinetic bioconcentration factor),"[2]; no E. coli, 10 mg/L",8.19
same,kt transformation rate constant of fluoxetine to norfluoxetine,"[2]; no E. coli, 10 mg/L",0.05 h⁻¹
same,BCF FLX (kinetic bioconcentration factor),[2]; [14],8.19
same,kt transformation rate constant of fluoxetine to norfluoxetine,[2]; [14],0.05 h⁻¹
same,BCF FLX (kinetic bioconcentration factor),[2]; [15],20.67
same,kt transformation rate constant of fluoxetine to norfluoxetine,[2]; [15],0.065 h⁻¹
same,effect of presence of bacteria on internal concentration of fluoxetine,"[2]; experiment III, 10 mg/L",almost doubled
same,BCF versus presence of E. coli,[2]; in vivo,BCF: positively correlated
same,k2 versus presence of E. coli,[2]; in vivo,k2: negatively correlated
same,k el,"[3]; whole organism (homogenate of pooled worms), no E. coli",0.000461 s⁻¹
same,k el,"[3]; whole organism (worm homogenate), with E. coli, k1, k2FLX, k2NF, kt constrained (eq 1b)",0.000461 s⁻¹
same,k el,"[3]; whole organism (worm homogenate), with E. coli, no constraint",0.000111 s⁻¹
same,concentration of fluoxetine in S medium without C. elegans over time,[4],constant over time
same,"steady-state concentrations, L4 versus adult C. elegans (life stage)","[5]; 0.5 and 20 mg/L, 48 h","did not show significant differences; also recorded: tested, but no effect (L4 vs adult)"
same,IR (ingestion rate) versus (toxic) effect on feeding,"[5]; E. coli related, modeled with eq 1b",IR (ingestion rate): negatively correlated–neurotoxic effect
same,k2 versus CYP P450 induction (linked to exposure time),[5]; adding extra ke parameter over time,k2: positively correlated (adding extra ke parameter over time)
same,BCF FLX (kinetic bioconcentration factor),[5]; [16],24.66
same,k1 uptake rate constant,[5]; [16],31.1 L/(kgnem h)
same,BCF FLX (kinetic bioconcentration factor),[5]; [17],6.36
same,k1 uptake rate constant,[5]; [17],9.01 L/(kgnem h)
same,kt transformation rate constant of fluoxetine to norfluoxetine,[5]; [17],0.056 h⁻¹
same,k el,"[6]; 0.5 mg/L, k2f elimination rate constant of fluoxetine (k2FLX,sum)",0.000336 s⁻¹
same,k el,"[6]; 0.5 mg/L, ke extra metabolism rate constant after 10 h, 0.5 mg/L",1.42e-05 s⁻¹
same,k el,"[6]; 20 mg/L, k2f elimination rate constant of fluoxetine (k2FLX,sum)",0.000233 s⁻¹
same,k el,"[6]; 20 mg/L, ke extra metabolism rate constant after 10 h, 20 mg/L",0.000144 s⁻¹
same,BCF values in other species,[7],"100 to 10,000"
same,effect of coexposure with norfluoxetine on internal fluoxetine concentrations,[8],"no significant differences; also recorded: tested, but no effect"
same,elimination over time after transfer to clean medium,[9],almost all fluoxetine was eliminated after 6 h
same,k el,"[10]; 1 h exposure (fluoxetine 0.5, 5, 20 mg/L; norfluoxetine 20 mg/L), then clean medium, no E. coli, read-out: k2sum elimination rate constant (+95% CI) (converted)",0.000394 s⁻¹
same,k el,"[10]; 1 h exposure, then clean medium, slow phase after 1 h, no E. coli, read-out: k2slow elimination rate constant (+95% CI) (converted)",0.000131 s⁻¹
same,k el,"[10]; calculated from k2sum and k2slow, read-out: k2fast elimination rate constant (converted)",0.000264 s⁻¹
same,BCF versus exposure concentration,[11]; [18],BCF: negatively correlated
same,k1 versus exposure concentration,[11]; [18],k1: negatively correlated
same,BCF FLX (kinetic bioconcentration factor),"[11]; 0.5 mg/L, k2FLX constrained",15.85
same,k1 uptake rate constant,"[11]; 0.5 mg/L, k2FLX constrained",22.5 L/(kgnem h)
same,BCF FLX (kinetic bioconcentration factor),"[11]; 0.5 mg/L, no constraint",13.06
same,k1 uptake rate constant,"[11]; 0.5 mg/L, no constraint",46.1 L/(kgnem h)
same,BCF FLX (kinetic bioconcentration factor),"[11]; 5 mg/L, k2FLX constrained",7.18
same,k1 uptake rate constant,"[11]; 5 mg/L, k2FLX constrained",10.2 L/(kgnem h)
same,BCF FLX (kinetic bioconcentration factor),"[11]; 5 mg/L, no constraint",7.66
same,k1 uptake rate constant,"[11]; 5 mg/L, no constraint",9.19 L/(kgnem h)
same,BCF FLX (kinetic bioconcentration factor),"[11]; 20 mg/L, k2FLX constrained",3.20
same,k1 uptake rate constant,"[11]; 20 mg/L, k2FLX constrained",4.54 L/(kgnem h)
same,BCF FLX (kinetic bioconcentration factor),"[11]; 20 mg/L, no constraint",2.71
same,k1 uptake rate constant,"[11]; 20 mg/L, no constraint",7.58 L/(kgnem h)
same,k el,"[12]; whole organism (homogenate of pooled worms), 5 mg/L, k2FLX constrained (value of experiment I)",0.000394 s⁻¹
same,k el,"[12]; whole organism (homogenate of pooled worms), 5 mg/L, no constraint",0.000333 s⁻¹
same,k el,"[12]; whole organism (homogenate of pooled worms), 20 mg/L, k2FLX constrained (value of experiment I)",0.000394 s⁻¹
same,k el,"[12]; whole organism (homogenate of pooled worms), 20 mg/L, no constraint",0.000778 s⁻¹
same,k el,"[12]; whole organism (worm homogenate), 0.5 mg/L, k2FLX constrained (value of experiment I)",0.000394 s⁻¹
same,k el,"[12]; whole organism (worm homogenate), 0.5 mg/L, no constraint",0.000981 s⁻¹
same,increase in CYP gene expression (cyp35-a2) over time,[13]; 0.5 mg/L fluoxetine,not observed
same,CYP gene expression (cyp35-a2) over time,"[13]; 20 mg/L fluoxetine, observed for 24 h, not yet for 10 h",increase in CYP gene expression over time
